Data reported in patent US7482008B1, “Human T cell reactive feline protein (TRFP) isolated from house dust and uses therefor” (Merck Patent GmbH, priority 1989, dated 2009).

Key:
Assay type in all cases: in vivo, mouse
[1] = tested on: B6CBAF1 mice; experiment: Tolerization s.c. then challenge with recombinant chain 1 of TRFP, chain 1 specific IL-2 production; conditions: 150 μg/dose s.c. days 0 and 5; challenge 100 μg recombinant chain 1 in CFA
Procedure: The mice were injected with 150 μg/dose of either the TRFP chain 1 or each of the peptides (days 0 and 5). The PBS alone and the PBS/peptides were injected in 300 μl/dose. The PBS/chain 1 of the TRFP protein was injected in 100 μl/dose. All tolerizing doses were at a single site under the dorsal skin between the forelimbs. On day 10 all of the animals received a challenge injection of 100 μg recombinant chain 1 of TRFP in 200 μl CFA as described above. On day 20 the animals were sacrificed and draining lymph nodes were removed as described above. The lymph node cells were suspended, rinsed, and cultured as above with or without 150 μg/ml recombinant chain 1 of TRFP. The lymph node cell cultures in this experiment were each 0.1 ml. The supernatants from the cultures were assayed for IL-2 as described above.

[2] = tested on: Fel d I primed mice; experiment: Peptide Y s.c. in Fel d I primed mice, IL-2 production of lymph node cells; conditions: injected subcutaneously up to fifty-six days earlier; compared to control mice
[3] = tested on: BDF1 mice preimmunized with TRFP; experiment: Peptide Y specific antibody ELISA of sera from TRFP-preimmunized, peptide Y tolerized mice
Procedure: The serum was separated as previously described. […] Each incubation step in this protocol lasts 1 hour at 37° C. The wells were incubated with gelatin in PBS for blocking excess binding to the plate. Sera were diluted in PBS in a range from 1/300 to 1/8100 and incubated in triplicate on the plates. After rinsing, the bound mouse antibody was detected by incubation with biotinylated goat anti-mouse IgG (Southern Biotechnology Associates). Streptavidin conjugated to horse radish peroxidase (Southern Biotechnology Associates) was added to detect antigen bound biotinylated antibody-complexes. […] The data from the other sera dilutions were consistent with the data from the 1/900 sera dilution.
The sera were assayed for the presence of peptide Y specific IgM, IgE, and IgG isotypes. The ELISA used to detect antigen specific binding of IgG1, IgG2a, IgG2b, IgG3 and IgM isotypes were similar to the IgG assay described above with the only difference being the biotinylated anti-immunoglobulin used to detect the bound isotype. These assays employed biotinylated goat anti-IgG1 (#1070-08), Southern Biotechnology Associates), anti-IgG2a (#1080-08, SBA), anti-IgG2b (1090-08, SBA) […] (1100-08, SBA), and anti-IgM (1020-08, SBA). Antigens bound IgE was detected similarly, but using biotinylated EM95, a rat monoclonal antibody specific for mouse IgE. (Baniyash M, Eshhar Z, Eur J. Immunol. 14:799, 1984). Biotinylated goat anti-rat Ig was used as an added signal amplification step in the IgE ELISA. […] IgG1 was the major isotype seen in the animals which were injected with saline only, with a titer of 1/2700 for all three animals. […] The titers for IgM and IgG2b were similarly effected.

[4] = tested on: B6CBAF1 mice; experiment: Oral induction of T cell non-responsiveness, protocol 1; conditions: fed on days -7, -5, -2
Procedure: The draining lymph nodes (i.e., inguinal, paraaortic and popliteal), the mesenteric lymph nodes, and the spleen were surgically removed from the animals 10-12 days after antigen challenge. Cells from these tissues were suspended by being forced through a stainless steel mesh with a glass pestle. The cells were washed twice in RPMI 1640 medium with a 1% fetal calf serum (FCS) before culture. All cells were cultured at 37° C. in 5% CO2 in RPMI 1640 with 10% FCS (no. F4884, Sigma), 100 units of penicillin G per ml, 10 μg of streptomycin per ml, 10 mM glutamine, and 0.05 mM 2-mercaptoethanol. […]. Cells were cultured in triplicate, 0.2 ml per well at 4×10^6 cells per ml, in 96-well plates. Supernatants were removed from the wells after 24 hours to test for the production of IL-2 or IL-3 and were frozen to kill any transferred cells or removed after 48 hours for testing IL-4 production. Separate triplicate wells were incubated for 96 hours for the proliferation assay. The supernatants were kept at […] for several days to kill transferred cells.
Lymph node of spleen cells were plated in a flat bottom 96-well plate (4×10^5/well) in 100 μl medium. Peptide or recombinant protein or control solution (100 μl) is added to each well and the cells allowed to incubate for 1 day at 37° C. On day 2, the cultures were pulsed with [^3H] thymidine (1 μCi per well in 50 μl of medium; 1 Ci=37 GBq) for 4 to 6 hours, and on day 3, the plates were harvested with a 96-well harvester (Tomtec, Orange, Conn.) and counted on a Betaplate scintillation counter (Pharmacia, Upsaala Sweden).
To measure IL-2, supernatants were tested after thawing for the ability to support the growth of an IL-2-dependent line such as CTLL-2 (University of California, Berkeley). […] After a 24 hour incubation, the cells were pulsed with [^3H] thymidine (1 μCi per well in 50 μl of medium; 1 Ci=37 GBq) for 4 to 6 hours and the plates were harvested with a 96-well harvester (Tomtec, Orange, Conn.) and counted on a Betaplate scintillation counter (Pharmacia, Upsaala Sweden).

[5] = tested on: mice primed to rch1; experiment: Duration of peptide inhibitory effects on T cell function in rCh1 primed mice; conditions: FIG. 25
Procedure: Mice were injected with recombinant TRFP Chain 1 (rCh1) in Incomplete Freund's Adjuvant. Three months later all the mice were primed to rch1 as judged by their development of significant titers of anti-rch1 antibody.

Substance	IL-2 production specific for chain 1 of TRFP [1]	IL-2 production of lymph node cells [2]	IgG antibody specific for peptide Y ([3]; 10 days after peptide Y/CFA challenge, sera 1/900)	peptide Y specific IgG2a, IgG3, or IgE ([3]; mouse, in vivo)	peptide Y specific IgG2b ([3]; peptide Y tolerized animals)	peptide Y specific serum IgM titer ([3]; peptide Y tolerized animals)	peptide Y specific IgG1 titer ([3]; peptide Y tolerized animals (two animals / one animal))	spleen cell IL-2 production [4]	spleen cell proliferation [4]	proliferation of and production of IL-2 by draining and mesenteric lymph node cells ([4]; challenge 100 μg in CFA)	duration of inhibitory effects of subcutaneous peptide injection on T cell function [5]
recombinant chain 1: recombinant TRFP chain 1 expressed in E. coli	effective in decreasing IL-2 production										
peptide Y: amino acid residues 29-55 from chain 1 of TRFP (SEQ. ID. NO: 18) (KALPVVLENARILKNCVDAKMTEEDKE)		decreased IL-2 production	little antibody specific for peptide Y	No binding above background	no IgG2b binding above background	1/300	1/300 and no binding above background	limited in their ability to produce IL-2	no effect on spleen cell proliferation	decreased	up to 56 days
